Results taken from patent US4965365A, “Imidazole derivatives and a process for the preparation thereof” (Laboratorios Vinas, S.A., priority 1988, dated 1990).

Legend:
[1] = tested on: histamine induced gastric acid secretion; conditions: 15 mg/kg, i.p., rat, intragastric pH
Description: (A) histamine induced gastric acid secretion model "in vivo" in the rat.
This activity was measured in Wistar rats of 240±20 g body weight. An endovenous perfusion of a histamine solution stimulated the gastric acid secretion, causing a drop in the intragastric pH. Thereafter, this compound was administered i.p. and the increase in gastric pH caused was evaluated.

ethanol induced ulcers = conditions: equimolecular doses
Description: (B) Necrotic agent model.
The activity of this compound vs cimetidine at equimolecular doses and a control group administered a vehicle was tested using the necrotic agent model, in this case ethanol, described by A. Robert et al. (Gastroenterology, 77: 433, 1979).

Row | Compound | pH Recovery [1] | % inhibition of ulcers vs the control (ethanol induced ulcers; ethanol model) | mm damaged (lesion index, mm of ulcer) (ethanol induced ulcers; mean ± standard error of the mean, control 91.4 ± 8.1, a: t test p< 0.05 vs control)
1 | CN=C(NC#N)NCCSCc1nc[nH]c1C.[Cl][Zn][Cl] [Zn(cimetidine)Cl2] | 65.5% |  | 
2 | CNC(=NC#N)NCCSCc1nc[nH]c1C [Cimetidine, cimetidine] |  | 30.3% | 63.7 ± 7.7 mm
